According to publication PMC8253220, “Molecular design, synthesis and in vitro biological evaluation of thienopyrimidine–hydroxamic acids as chimeric kinase HDAC inhibitors: a challenging approach to combat cancer” (Journal of Enzyme Inhibition and Medicinal Chemistry, 2021):
Several values for one entry are separate records, joined by “and”; a condition that tells them apart may be missing. Equal entries are not always repeated.

What was measured:
[1] = molecular target: EGFR (Homo sapiens, UniProt P00533); assay: In vitro EGFR tyrosine kinase inhibitory assay (Z'-LYTE, SelectScreen); type: biochemical; conditions: 10 µM single dose
Chain of EGFR (P00533 25-1210): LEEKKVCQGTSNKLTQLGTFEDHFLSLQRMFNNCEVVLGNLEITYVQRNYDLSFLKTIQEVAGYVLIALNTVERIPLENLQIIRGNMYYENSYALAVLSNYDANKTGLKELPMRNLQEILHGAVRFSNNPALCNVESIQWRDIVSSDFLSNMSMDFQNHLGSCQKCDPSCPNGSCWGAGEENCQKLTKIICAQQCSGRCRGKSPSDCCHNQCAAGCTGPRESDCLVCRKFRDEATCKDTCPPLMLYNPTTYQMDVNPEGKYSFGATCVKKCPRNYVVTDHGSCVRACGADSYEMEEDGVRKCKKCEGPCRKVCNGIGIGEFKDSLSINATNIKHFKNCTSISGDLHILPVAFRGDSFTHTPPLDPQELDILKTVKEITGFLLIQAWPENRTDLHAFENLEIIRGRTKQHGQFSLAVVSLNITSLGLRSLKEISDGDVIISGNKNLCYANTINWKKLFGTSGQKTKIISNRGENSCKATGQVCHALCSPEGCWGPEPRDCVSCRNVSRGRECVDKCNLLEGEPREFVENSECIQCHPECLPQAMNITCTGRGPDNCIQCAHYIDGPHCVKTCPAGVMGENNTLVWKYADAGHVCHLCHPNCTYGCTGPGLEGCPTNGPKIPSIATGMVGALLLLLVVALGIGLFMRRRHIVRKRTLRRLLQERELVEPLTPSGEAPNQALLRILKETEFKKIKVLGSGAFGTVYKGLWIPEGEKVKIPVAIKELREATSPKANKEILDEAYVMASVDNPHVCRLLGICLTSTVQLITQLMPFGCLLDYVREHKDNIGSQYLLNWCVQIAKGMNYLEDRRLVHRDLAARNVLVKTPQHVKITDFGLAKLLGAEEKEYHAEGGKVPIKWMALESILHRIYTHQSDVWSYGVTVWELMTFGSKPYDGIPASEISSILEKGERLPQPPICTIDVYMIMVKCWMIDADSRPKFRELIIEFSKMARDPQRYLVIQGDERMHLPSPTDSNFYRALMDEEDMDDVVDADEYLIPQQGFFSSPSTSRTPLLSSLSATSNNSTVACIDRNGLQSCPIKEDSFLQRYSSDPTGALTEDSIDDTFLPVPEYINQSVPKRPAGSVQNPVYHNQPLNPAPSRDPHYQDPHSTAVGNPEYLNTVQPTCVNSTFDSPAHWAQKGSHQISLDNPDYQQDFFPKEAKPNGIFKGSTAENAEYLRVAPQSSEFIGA
Method: The target compounds were evaluated for their in vitro inhibitory activities against EGFR, VEGFR-2, and HDAC6. The EGFR and VEGFR-2 inhibitory assays were performed at Thermo Fischer Scientific, Madison, WI, USA (SelectScreenServices@thermofisher.com). The HDAC inhibitory assays were performed at BPS Bioscience, San Diego, CA, USA (www.bpsbioscience.com). Initially, all of the synthesised target compounds were evaluated for their percent inhibitory activity against EGFR, VEGFR-2, and HDACs at 10 µM single dose concentration, in which their mean percent inhibition is summarised in (Figure 5, Tables 1 and [2]). Representative compounds were evaluated for their percent inhibitory activity against EGFR and VEGFR-2 at 6 different concentrations (0.1 nM, 1 nM, 10 nM, 100 nM, 1 µM, 10 µM) to subsequently calculate their IC50 values (Table 3). Additionally, all of the synthesised target compounds were submitted to the National Cancer Institute “NCI” Bethesda, Maryland, USA (www.dtp.nci.nih.gov), to evaluate theirs in vitro antiproliferative activities against NCI 60- cancer cell line panel.
In vitro enzyme inhibition determination for the synthesised compounds was carried out in Thermo Fischer Scientific, Madison, WI, USA (SelectScreenServices@thermofisher.com). The EGFR and VEGFR-2 tyrosine kinase % inhibitory activity at a single-dose concentration of 10 µM was performed initially then representative compounds were evaluated at single-dose concentrations of (0.1 nM, 1 nM, 10 nM, 100 nM, 1 µM) using ZYLTE technology. A fluorescence-based, coupled-enzyme format is employed in the biochemical assay and depends on the sensitivity of proteolytic cleavage to non-phosphorylated and phosphorylated peptides. Then IC50 values for selected compounds were determined by GraphPad Prism at Misr international university.

[2] = test system: ACHN; assay: NCI one-dose screen; type: cell-based, human; conditions: Renal ACHN, 10 µM single dose
Method: (§1) All of the synthesised structures were selected and submitted to NCI based on computer modelling techniques and the degree of diversity of structures for the evaluation of their antiproliferative activity. The 20 synthesised compounds were selected with their respective NCI codes [NCS D-820157- NCS D-820176] for the inhibition percent assay at an initial single dose of 10 μM on the full NCI 60 cell panel, where the mean graph of the percent growth for all compounds on the full NCI cell panel is evaluated, compared to the untreated control cells (Supplementary Material). In vitro cell line inhibition % of all synthesised compounds is represented in (Table 1 of Supplementary Material).
(§2) All of the synthesised compounds (20) were submitted to NCI and selected for in vitro anticancer assay against a panel of 60 cancer cell lines. The methodology of assay and calculations is as reported.

[3] = test system: COLO 205; assay: NCI one-dose screen; type: cell-based, human; conditions: Colon COLO 205, 10 µM single dose
Method: as §1, §2

[4] = test system: EKVX; assay: NCI one-dose screen; type: cell-based, human; conditions: NSCLC EKVX, 10 µM single dose
Method: as §1, §2

[5] = test system: HCC-2998; assay: NCI one-dose screen; type: cell-based, human; conditions: Colon HCC-2998, 10 µM single dose
Method: as §1, §2

[6] = test system: HOP-62; assay: NCI one-dose screen; type: cell-based, human; conditions: NSCLC HOP-62, 10 µM single dose
Method: as §1, §2

[7] = test system: IGROV1; assay: NCI one-dose screen; type: cell-based, human; conditions: Ovarian IGROV1, 10 µM single dose
Method: as §1, §2

[8] = test system: K-562; assay: NCI one-dose screen; type: cell-based, human; conditions: Leukemia K-562, 10 µM single dose
Method: as §1, §2

[9] = test system: LOX IMVI; assay: NCI one-dose screen; type: cell-based, human; conditions: Melanoma LOX IMVI, 10 µM single dose
Method: as §1, §2

[10] = test system: MALME-3M; assay: NCI one-dose screen; type: cell-based, human; conditions: Melanoma MALME-3M, 10 µM single dose
Method: as §1, §2

[11] = test system: MCF7; assay: NCI one-dose screen; type: cell-based, human; conditions: Breast MCF7, 10 µM single dose
Method: as §1, §2

[12] = test system: MDA-MB-231/ATCC; assay: NCI one-dose screen; type: cell-based, human; conditions: Breast MDA-MB-231/ATCC, 10 µM single dose
Method: as §1, §2

[13] = test system: MDA-MB-468; assay: NCI one-dose screen; type: cell-based, human; conditions: Breast MDA-MB-468, 10 µM single dose
Method: as §1, §2

[14] = test system: NCI-H226; assay: NCI one-dose screen; type: cell-based, human; conditions: NSCLC NCI-H226, 10 µM single dose
Method: as §1, §2

[15] = test system: NCI-H460; assay: NCI one-dose screen; type: cell-based, human; conditions: NSCLC NCI-H460, 10 µM single dose
Method: as §1, §2

[16] = test system: OVCAR-5; assay: NCI one-dose screen; type: cell-based, human; conditions: Ovarian OVCAR-5, 10 µM single dose
Method: as §1, §2

[17] = test system: PC-3; assay: NCI one-dose screen; type: cell-based, human; conditions: Prostate PC-3, 10 µM single dose
Method: as §1, §2

[18] = test system: RXF 393; assay: NCI one-dose screen; type: cell-based, human; conditions: Renal RXF 393, 10 µM single dose
Method: as §1, §2

[19] = test system: SK-MEL-5; assay: NCI one-dose screen; type: cell-based, human; conditions: Melanoma SK-MEL-5, 10 µM single dose
Method: as §1, §2

[20] = test system: SK-OV-3; assay: NCI one-dose screen; type: cell-based, human; conditions: Ovarian SK-OV-3, 10 µM single dose
Method: as §1, §2

[21] = test system: SN12C; assay: NCI one-dose screen; type: cell-based, human; conditions: Renal SN12C, 10 µM single dose
Method: as §1, §2

[22] = test system: SW-620; assay: NCI one-dose screen; type: cell-based, human; conditions: Colon SW-620, 10 µM single dose
Method: as §1, §2

[23] = test system: T-47D; assay: NCI one-dose screen; type: cell-based, human; conditions: Breast T-47D, 10 µM single dose
Method: as §1, §2

[24] = test system: UACC-257; assay: NCI one-dose screen; type: cell-based, human; conditions: Melanoma UACC-257, 10 µM single dose
Method: as §1, §2

[25] = test system: full NCI 60 cell panel; assay: NCI one-dose screen, whole panel statistics; type: cell-based, human; conditions: 1.00E-5 Molar; for Mean Growth Percent: mean over panel
Method: as §1, §2

| Structure (SMILES) | inhibition at 10 µM [1] [%] | Growth Percent [2] | Growth Percent [3] | Growth Percent [4] | Growth Percent [5] | Growth Percent [6] | Growth Percent [7] | Growth Percent [8] | Growth Percent [9] | Growth Percent [10] | Growth Percent [11] | Growth Percent [12] | Growth Percent [13] | Growth Percent [14] | Growth Percent [15] | Growth Percent [16] | Growth Percent [17] | Growth Percent [18] | Growth Percent [19] | Growth Percent [20] | other results |
| --- | --- | --- | --- | --- | --- | --- | --- | --- | --- | --- | --- | --- | --- | --- | --- | --- | --- | --- | --- | --- | --- |
| Cc1c(C(=O)NO)sc2ncnc(Nc3ccccc3)c12 [Compound 15b, N-hydroxy-5-methyl-4-(phenylamino)thieno[2,3-d]pyrimidine-6-carboxamide] | 98 | 95.0% and 95.07% | 115.6% and 115.62% | 92.7% and 92.76% | 99.9% and 99.98% | 103.6% and 103.61% | 87.7% | 94.9% and 94.99% | 96.0% and 96.03% | 101.18% | 87.2% and 87.27% | 100.3% and 100.34% | 80.8% | 89.3% and 89.32% | 101.6% and 101.66% | 98.4% and 98.41% | 100.1% and 100.15% | 97.2% and 97.22% | 99.0% and 99.02% | 125.8% and 125.83% | Growth Percent [21]: 92.8% and 92.82%; Growth Percent [22]: 89.5% and 89.53%; Growth Percent [23]: 90.8% and 90.83%; Growth Percent [24]: 107.0% and 107.03%; Delta (one dose mean graph) [25]: 24.31%; Range (one dose mean graph) [25]: 53.05%; Mean Growth Percent [25]: 97.09%; melting point: 200 °C |
| Cc1c(C(=O)NO)sc2ncnc(Nc3ccc(NC(=S)Nc4ccccc4)cc3)c12 [Compound 7d, 1–(4-(6-(hydroxycarbamoyl)-5-methylthieno[2,3-d]pyrimidin-4-ylamino)phenyl)-3-phenylthiourea] | 78 | 105.4% and 105.43% | 112.9% and 112.97% | 93.6% and 93.61% | 99.8% and 99.86% | 100.8% and 100.85% | 111.5% and 111.55% | 103.0% and 103.01% | 93.7% and 93.76% | 99.4% and 99.48% | 95.2% and 95.28% | 94.9% and 94.96% | 103.9% and 103.92% | 103.8% and 103.88% | 102.0% and 102.05% | 102.8% | 105.6% and 105.68% | 103.7% and 103.72% | 101.2% and 101.24% | 120.7% and 120.74% | Growth Percent [21]: 100.8% and 100.86%; Growth Percent [22]: 104.8% and 104.86%; Growth Percent [23]: 112.9% and 112.91%; Growth Percent [24]: 99.4% and 99.45%; Delta (one dose mean graph) [25]: 17.28%; Range (one dose mean graph) [25]: 35.68%; Mean Growth Percent [25]: 102.34%; melting point: 300 °C |
| Cc1c(C(=O)NCCCC(=O)NO)sc2ncnc(Nc3ccc(NC(=O)Nc4ccccc4)cc3)c12 [Compound 12a, 1–(4-(6-((4-(hydroxyamino)-4-oxobutyl)carbamoyl)-5-methylthieno[2,3-d]pyrimidin-4-ylamino)phenyl)-3-phenylurea] | 11 | 95.4% and 95.45% | 111.9% and 111.95% | 93.22% | 102.1% and 102.15% | 100.0% and 100.08% | 99.0% and 99.07% | 97.8% and 97.83% | 93.57% | 104.5% and 104.57% | 92.4% and 92.41% | 92.1% and 92.16% | 100.0% and 100.06% | 93.3% and 93.35% | 102.6% and 102.61% | 105.1% and 105.14% | 98.9% and 98.99% | 100.1% and 100.13% | 97.8% and 97.81% | 121.6% and 121.69% | Growth Percent [21]: 99.0% and 99.09%; Growth Percent [22]: 103.3% and 103.39%; Growth Percent [23]: 103.9% and 103.98%; Growth Percent [24]: 104.2% and 104.23%; Delta (one dose mean graph) [25]: 25.38%; Range (one dose mean graph) [25]: 46.43%; Mean Growth Percent [25]: 100.71%; melting point: 219 °C |
